Common to all, as to format: physicochemical
Data set [1] is described as follows: Durability in solvent cast PVC films, Atlas C165 Weather-Ometer (Example 83). Particulars: PVC film; for % Loss / Absorbance (max) Loss units: 1100 hrs. How it is done:
(§1) The durability of representative benzotriazoles in thermoplastic substrates is determined by incorporating various test compounds into solvent cast films of poly(vinyl chloride), polycarbonate and polystyrene resins. The free standing films are mounted into cardboard holders, secured in metal frames and exposed in an Atlas C165 Xenon-arc Weather-Ometer under dry conditions according to ASTM G26 for 1100 and 2200 hour exposure. Loss of UV absorber is determined by monitoring the loss of diagnostic UV absorption as described earlier. Performance is measured by a change in color or the physical integrity of the film.
PVC films of GEON® 27 (Geon Co.) are solvent cast as described above with warm tetrahydrofuran (THF) and exposed in an Atlas C165 Weather-Ometer as described in Example 60 for 1100 hours.

Data set [2] can be described thus: Durability in solvent cast polycarbonate film, Atlas C165 Xenon-arc, ASTM G26 (Example 80). The note with it: for % Loss / Absorbance (max) Loss units: 1100 hrs. How it is done: as §1
Polycarbonate flake (LEXAN® 145, General Electric) is dissolved in methylene chloride at room temperature along with between 1 and 3% by weight of test benzotriazole, based on the polycarbonate. Films are cast using a calibrated drawdown bar to prepare 1 mil thick film after drying.

Data set [3] in a line: UV absorption data (Example 74). Also noted: ε @ λ max: unit not given beside the values.
The nature of data set [4]: UV absorption data (Example 74). Particulars: 20 mg/l concentrations; not the molar extinction values. How it is done:
In the following examples the absorbance at 375 nm is reported for 20 mg/l concentrations. This is not the molar extinction values.

Data set [5] can be described thus: Yellowness color of solutions in butyl acetate, Macbeth Color-Eye (Example 75). Particulars: 30 mg/100 mL in butyl acetate; for DE: corresponding Yellowness Index value; for b: yellowness, Macbeth Color-Eye. As for the experimental part:
The following examples show the difference in color between some of the instant compounds as measured by a Macbeth Color-Eye instrument at a concentration of 30 mg/100 mL in butyl acetate. […] In the table, the compounds are listed by increasing b value. The instrument measures yellowness as b and DE is the corresponding Yellowness Index value.

Data set [6] in a line: Loss of UV absorber from high solids thermoset acrylic clear coat, Xenon Arc Weather-Ometer (Example 77). The note with it: after 1211 hours Xenon arc exposure; clear coat with 1% hindered amine; UV absorber at 5 mmol % by weight. As for the experimental part: To ascertain the effect on thermal durability and loss rate from a high solids thermoset acrylic coating of various 2H-benzotriazole UV absorbers substituted by a variety of electron withdrawing and electron donating groups, the following tests are carried out.
A high solids thermoset acrylic clear coat is prepared by mixing an experimental acrylic polyol resin and hexamethoxymethylmelamine (Resimene® 747, Monsanto) at a solids ratio of 60/40. The dodecylbenzene sulfonic acid catalyst (Nacure® 5225; King Industries) is added at 0.70% by weight. A flow aid Modaflow® (Monsanto) is added at 0.25% by weight to form a model acrylic melamine resin system.
The model clear coat is reduced with xylene to a viscosity of 26-27 second using a Zahn #2 cup and applied via a conventional air spray at 50 psi (3.5 Kg/cm^2) over a 1″×3″ (2.54 cm×7.62 cm) quartz slide. Cure is achieved by baking the slide for 30 minutes at 260° F. (127° C.). The clear coat is stabilized with 1% by weight of a hindered amine light stabilizer, bis-(1-octyloxy-2,2,6,6-tetramethylpiperidin-4-yl)sebacate, (TINUVIN® 123, Ciba-Geigy). The various test benzotriazole UV absorbers are incorporated at the 5 mmol % by weight in the clear coat. The film thickness on the quartz slides range from 1.15 to 1.41 mils (0.029 to 0.036 mm).
The films on the quartz slides are weathered according to the following conditions in Xenon Arc Weather-Ometer with a controlled irradiance at 6500 W, using inner quartz and outer borosilicate S-type filter. The irradiation cycle is as follows: 40 minutes of straight irradiation with no water spray, followed by 20 minutes of light plus front spray, followed by 60 minutes of light irradiation and finally by 60 minutes dart plus rear spray (condensation). The setting is at 0.55 W/M^2 at 340 nm, 1.98 kJ/hour. In the light cycle the black panel temperature is controlled at 70±2° C. The relative humidity in the light cycle is in the range of 50-55% and in the dark cycle 100%. The absorbance of the long wavelength UV band as a function of Xenon arc weathering hours are recorded in the table below.
To follow the loss of UV absorbers from the clear coats, UV spectra are measured initially and after weathering at regular time intervals. The UV spectrophotometer measures absorbance linearly up to 5.5 absorbance units using a reference beam attenuation technique.
This is tested by following the ratio of absorbance of the band at about 300 nm and the band at about 340 nm.
The data in the table below are based on formula A after 1211 hours of exposure of the clear coats containing the test benzotriazole UV absorbers.

Data set [7] in a line: Loss of UV absorber from high solids thermoset acrylic melamine clear coat, Xenon-Arc X180 cycle (Example 78). Particulars: for durability (low loss rate absorbance values after exposure): in words, summary of the tables of Example 78. From the text: Following the general procedure of Example 77, a number of additional benzotriazole test compounds are incorporated into a high solids thermoset acrylic melamine resin at such concentrations between 1.93 and 3% by weight to give equal molar concentrations of test benzotriazole in equal film thickness, and sufficient to give a starting absorbance of approximately 2.0 absorbance units.
The test discs are exposed in a Xenon-Arc Weather-Ometer at X180 cycle (0.45 Watts/M^2). The initial UV absorbance is measured followed by measurements at roughly 250 hour intervals for the first 2000 hours and every 500 hours thereafter. Each clear coat also contains 1% by weight of a hindered amine light stabilizer, bis-(1-octyloxy-2,2,6,6-tetramethylpiperidin-4-yl) sebacate, as well.

Setting [8] is: after 1253 hours of exposure, starting absorbance approximately 2.0, 1% hindered amine.

Regarding `CCCCCCCCCS(=O)(=O)c1ccc2nn(-c3cc(C(C)(C)CC(C)(C)C)cc(C(C)(C)c4ccccc4)c3O)nc2c1` [AA, 5-nonylsulfonyl-2-(2-hydroxy-3-α-cumyl-5-tert-octylphenyl)-2H-benzotriazole], in data set [1] (2.5 wt %), the “Absorbance (max) 1100 hrs” value came out at 1.103, the “% Loss” value amounted to 3.1% and the “Absorbance (max) Loss units” value was determined as 0.036. In addition, the “Absorbance (max) 0 hrs” value in data set [1] (2.5 wt %, AA at 368 nm) is on record as 1.149. Further, in data set [2] (2.5 wt %), the “Absorbance (max) 1100 hrs” value was found to be 1.300, the “% Loss” value is 2.5% and the “Absorbance (max) Loss units” value amounted to 0.033. The “Absorbance (max) 0 hrs” value in data set [2] (2.5 wt %, AA at 364 nm) was 1.333.
As for `CCCCS(=O)(=O)c1ccc2nn(-c3cc(C(C)(C)CC(C)(C)C)cc(C(C)(C)c4ccccc4)c3O)nc2c1` [CC, 5-butylsulfonyl-2-(2-hydroxy-3-α-cumyl-5-tert-octylphenyl)-2H-benzotriazole], in data set [3], the “ε @ λ max” value is 14,100 and the λ max nm stood at 359 nm. Besides, the “Absorbance @ 375 nm” value in data set [4] is reported as 0.42. Also, in data set [5], the DE is listed as 3.35 and the b is 2.84.
In the case of `CC(C)(C)CC(C)(C)c1ccc(O)c(-n2nc3ccccc3n2)c1` [Compound A, 2-(2-hydroxy-5-tert-octylphenyl)-2H-benzotriazole], the “Units Absorbance Loss” value in data set [6] came to 1.7982.
Same read-out and setting: the result for `CC(C)(C)CC(C)(C)c1cc(Cc2cc(C(C)(C)CC(C)(C)C)cc(-n3nc4ccccc4n3)c2O)c(O)c(-n2nc3ccccc3n2)c1` [Compound B, 2,2′-Methylene-bis[6-(2H-benzotriazol-2-yl)-4-tert-octylphenol]] reads 1.6300.
For `CC(C)(C)c1cc(CCCO)cc(-n2nc3ccccc3n2)c1O` [Compound L], in data set [6], the “Units Absorbance Loss” value is 0.3712.
Turning to `CC(C)(c1ccccc1)c1cc(-n2nc3ccccc3n2)c(O)c(C(C)(C)c2ccccc2)c1` [Compound P, 2-(2-hydroxy-3,5-di-α-cumylphenyl)-2H-benzotriazole], the “Units Absorbance Loss” value in data set [6] was found to be 0.2576. The “Absorbance (max) 1100 hrs” value in data set [1] (1.5 wt %) stood at 1.022; in data set [1] (2.5 wt %), 2.081; in data set [2] (1.5 wt %), 0.919; in data set [2] (2.5 wt %), 1.844. In addition, the “% Loss” value came to 10.7% in data set [1] (1.5 wt %), 5.6% in data set [1] (2.5 wt %), 13.5% in data set [2] (1.5 wt %) and 12.3% in data set [2] (2.5 wt %). Further, the “Absorbance (max) Loss units” value in data set [1] (1.5 wt %) is listed as 0.123; in data set [1] (2.5 wt %), 0.130; in data set [2] (1.5 wt %), 0.143; in data set [2] (2.5 wt %), 0.260. Moreover, the “Absorbance (max) 0 hrs” value is listed as 1.145 in data set [1] (1.5 wt %, P at 347 nm); 2.211 in data set [1] (2.5 wt %, AA at 368 nm); 1.062 in data set [2] (1.5 wt %, P at 347 nm); 2.104 in data set [2] (2.5 wt %, AA at 364 nm).
Regarding `COC(=O)c1ccc2nn(-c3cc(C(C)(C)CC(C)(C)C)cc(C(C)(C)c4ccccc4)c3O)nc2c1` [DD, 5-carbomethoxy-2-(2-hydroxy-3-α-cumyl-5-tert-octylphenyl)-2H-benzotriazole], in data set [3], the “ε @ λ max” value is recorded as 15,700 and the λ max nm came to 358 nm. Besides, the “Absorbance @ 375 nm” value in data set [4] was 0.42. Also, in data set [5], the DE came out at 2.25 and the b was determined as 1.85.
With `COC(=O)CCc1ccc(O)c(-n2nc3ccccc3n2)c1` [D], the “Units Absorbance Loss” value in data set [6] was 1.4002.
On the same count and under the same terms, in the case of `COc1ccc2nn(-c3cc(C)cc(C(C)(C)C)c3O)nc2c1` [E] it was 1.1872.
On to `CC(C)CCCCCOC(=O)CCc1cc(-n2nc3ccc(C(F)(F)F)cc3n2)c(O)c(C(C)(C)C)c1` [FF, isooctyl 3-(5-trifluoromethyl-2H-benzotriazol-2-yl)-5-tert-butyl-4-hydroxyhydro-cinnamate], for which, in data set [5], the DE was found to be 0.72 and the b was 0.54.
With `COC(=O)CCc1cc(-n2nc3ccccc3n2)c(O)c(C(C)(C)C)c1` [F], in data set [6], the “Units Absorbance Loss” value worked out at 0.5259.
On to `CC(C)(c1ccccc1)c1ccc(O)c(-n2nc3ccccc3n2)c1` [G], for which, in data set [6], the “Units Absorbance Loss” value was found to be 0.4527.
Same read-out and setting: in the case of `CC(C)(C)CC(C)(C)c1cc(C(C)(C)c2ccccc2)cc(-n2nc3ccccc3n2)c1O` [I] it was 0.4299; in that of `CC(C)(C)CC(C)(C)c1cc(-n2nc3ccccc3n2)c(O)c(C(C)(C)CC(C)(C)C)c1` [K], 0.3777; in that of `COC(=O)CCc1cc(-n2nc3ccccc3n2)c(O)c(C(C)(C)c2ccccc2)c1` [M], 0.3433.
As to `CC(C)(C)c1cc(-n2nc3ccc(C#N)cc3n2)c(O)c(C(C)(C)C)c1` [N], in data set [6], the “Units Absorbance Loss” value was 0.3098.
As to `CC(C)(c1ccccc1)c1cc(-c2ccccc2)c(O)c(-n2nc3ccccc3n2)c1` [R], the “Units Absorbance Loss” value came to 0.2424 in data set [7] (setting [8]), 0.3724 in data set [7] (after 1489 hours of exposure) and 0.4824 in data set [7] (after 2521 hours of exposure).
On to `CC(C)(C)c1cc(-n2nc3ccc(S(=O)(=O)c4ccccc4)cc3n2)c(O)c(C(C)(C)C)c1` [T], for which the “Units Absorbance Loss” value in data set [7] (setting [8]) came out at 0.1827; in data set [7] (after 1264 hours of exposure), 0.1965; in data set [7] (after 1489 hours of exposure), 0.2654; in data set [7] (after 1518 hours of exposure) it was 0.2423; in data set [7] (after 2521 hours of exposure) it was 0.3570. For the same compound, the “durability (low loss rate absorbance values after exposure)” value in data set [7] is listed as “significantly more durable”.
With `CC(C)(C)CC(C)(C)c1cc(-n2nc3ccc(Cl)cc3n2)c(O)c(C(C)(C)c2ccccc2)c1` [V, 5-Chloro-2-(2-hydroxy-3-α-cumyl-5-tert-octylphenyl)-2H-benzotriazole], the entries for the “Units Absorbance Loss” value in data set [7] (after 1264 hours of exposure) and in data set [7] (after 1518 hours of exposure) were 0.1719 and 0.1955, respectively. Besides, the “durability (low loss rate absorbance values after exposure)” value in data set [7] is “especially durable”.
For `CC(C)(C)CC(C)(C)c1cc(-n2nc3ccc(F)cc3n2)c(O)c(C(C)(C)c2ccccc2)c1` [W, 5-Fluoro-2-(2-hydroxy-3-α-cumyl-5-tert-octylphenyl)-2H-benzotriazole], the figures for the “Units Absorbance Loss” value in data set [7] (after 1264 hours of exposure) and in data set [7] (after 1518 hours of exposure) were 0.1655 and 0.1668, respectively. In addition, in data set [7], the “durability (low loss rate absorbance values after exposure)” value is “especially durable”.
`CC(C)(C)CC(C)(C)c1cc(-c2ccccc2)c(O)c(-n2nc3ccccc3n2)c1` [X]: the results for the “Units Absorbance Loss” value in data set [7] (after 1264 hours of exposure) and in data set [7] (after 1518 hours of exposure) were 0.1796 and 0.2220, respectively.
